The values that follow come from paper PMC12144510, “SIRT3 Functions as an Eraser of Histone H3K9 Lactylation to Modulate Transcription for Inhibiting the Progression of Esophageal Cancer” (Molecular & Cellular Proteomics : MCP, 2025).

The subject of one assay is H3K9la. Description: H3K9la level in cells with SIRT3 inhibitor (Western blot). Type of assay: cell-based, human.
Assay [1] concerns KYSE30 cells. Description: Cell proliferation / viability (CCK-8). As to conditions: ESCC cell (KYSE30), CCK-8, n = 8; supplemental Fig. S2G. The class given is cell-based, human.
The subject of another assay is ESCC cell. Description: Colony formation assay. Type of assay: cell-based, human. As for the experimental part: The cells (KYSE30 cells with SIRT3 KO and overexpression) to be observed were counted, and 1000 cells/well were inoculated into the 12-well plate culture plate, and the medium was changed every 3 days. About a week after cell culture, the cells were washed twice with PBS and fixed with 1 ml 4% paraformaldehyde for 10 min. The cells were stained with crystal violet solution for 5 to 10 min, and the excess crystal violet solution was washed away with PBS. The formation of cell clones was photographed. The results were analyzed by ImageJ software (v.ImageJ2).
The cells were counted and 1000 cells were inoculated in 6-well plate plates, and the medium was changed every 3 days. After about 1 week of cell culture, the cells were washed twice with PBS and fixed with 1 ml 4% paraformaldehyde for 30 min. Dye crystal violet for 5 to 10 min and then the cells were washed with PBS. The formation of cell clones was photographed and analyzed using ImageJ software.

Assay [2] has as its system KYSE30 cells. Description: Cell migration (wound healing assay). The class given is cell-based, human. To be noted: n = 8, supplemental Fig. S2H. As for the experimental part:
The wound healing assay involved seeding cells in 6-well plates. After the cells (KYSE30 cells with SIRT3 KO and overexpression) were fused, they were scraped off with the tip of the pipette, and the floating cells were washed away with PBS. Immediately afterward, the wounds were photographed. After culture in serum-free medium for 24 h, the wounds were photographed again.

The next assay relates to SIRT3. Set-up: method as in PMID 26120888. To be noted: cited from earlier work.
The next assay has as its system H3K9la in HEK 293T cells. Description: H3K9la level after sodium lactate stimulation. The class given is cell-based, human. To be noted: 20 mM sodium lactate, 24 h, Figure S4B. As for the experimental part: Histone was isolated from HEK 293T cells by acid extraction. In short, HEK 293T cells were treated with 20 mM sodium lactate for 24 h and harvested by centrifugation. The harvested HEK 293T cells were resuspended with lysis buffers (10 mM Tris–HCl pH 8.0, 1 mM KCl, 1.5 mM MgCl2, 1 mM DTT, 2 mM PMSF, and Roche Complete EDTA free protease inhibitor) and incubated at 4 °C for 1 h. The intact nuclei were centrifuged at 2000g at 4 °C for 10 min to form pellets. To extract histones, 0.4 M H2SO4 was added to the suspension nucleus and then rotated overnight at 4 °C. After removal of nuclear debris by centrifugation at 10,000g at 4 °C for 10 min, histone was precipitated by adding 100% trichloroacetic acid (trichloroacetic acid final concentration 33%). The precipitated histones were incubated at 4 °C for 10 min and washed with acetone twice. The dried protein particles were dissolved with ddH2O. Subsequently, 4 ∼ 6 μg histone was incubated with 10 μM SIRT3 in 100 μl PBS supplemented by 5 mM NAD^+ at 37 °C for 5 h. The lactylation levels at histone were detected by Western blot.

“Also recorded” adds a separate entry of the source.

For `c1cncc(-c2cn[nH]n2)c1` [3-TYP], the “delactylation of SIRT3 with inhibitor” value in the assay with H3K9la (Figure S2F) is listed as “decreasing delactylation”. The “level of H3K9la in cells” value with H3K9la (compared with dimethyl sulfoxide, supplemental Fig. S2F) was “increased H3K9la levels; also recorded: significantly increased”. In addition, in the assay with KYSE30 cells [1], the cell proliferation entry is “significantly increased; also recorded: Increasing efficiencies of proliferation”. The colony formation result with ESCC cell is “Increasing efficiencies of proliferation and colony formation”. The cell migration ability entry in the assay with KYSE30 cells [2] was “significantly increased”. In the assay with SIRT3, the SIRT3 inhibition selectivity result is recorded as “selective SIRT3 inhibitor”.
Turning to `CC(O)C(=O)[O-].[Na+]` (stereo not shown) [sodium lactate], the H3K9la level result with H3K9la in HEK 293T cells is given as “increased”.
